Experimental data published in PubChem BioAssay (NCI).
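Briefly, cells in 96-well plates were exposed to five compound concentrations for 48 h, and endpoints were estimated by linear interpolation. GI50 marks 50% less growth. TGI denotes the concentration required for complete inhibition of growth.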

How the values were obtained:
Assay in all cases: growth of human tumour cells (NCI), 48 h
OVCAR-4 ovarian = system: OVCAR-4 ovarian
SK-MEL-2 melanoma = system: SK-MEL-2 melanoma
UO-31 renal = system: UO-31 renal
LOX IMVI melanoma = system: LOX IMVI melanoma
PC-3 prostate = system: PC-3 prostate
HS 578T breast = system: HS 578T breast
MCF7 breast = system: MCF7 breast
NCI/ADR-RES ovarian = system: NCI/ADR-RES ovarian
HCC-2998 colon = system: HCC-2998 colon

Row | SMILES | GI50 (OVCAR-4 ovarian) [µM] | TGI (OVCAR-4 ovarian) [µM] | GI50 (SK-MEL-2 melanoma) [µM] | TGI (SK-MEL-2 melanoma) [µM] | GI50 (UO-31 renal) [µM] | TGI (UO-31 renal) [µM] | GI50 (LOX IMVI melanoma) [µM] | TGI (LOX IMVI melanoma) [µM] | TGI (PC-3 prostate) [µM] | TGI (HS 578T breast) [µM] | TGI (MCF7 breast) [µM] | TGI (NCI/ADR-RES ovarian) [µM] | TGI (HCC-2998 colon) [µM] | GI50 (HCC-2998 colon) [µM]
1 | CC(=O)[CH-]C(C)=O.CC(=O)[CH-]C(C)=O.[CH2-]CCC.[CH2-]CCC.[Sn+4] | 1.31 | 2.61 | 0.309 | 1.22 | 1.03 | 2.21 | 0.174 | 0.464 |  |  |  |  |  | 
2 | CC(C)CCC(=O)c1ccoc1 |  | > 100 |  | > 100 |  | > 100 |  | > 100 | > 100 | > 100 | > 100 | > 100 | > 100 | 
3 | CCCCCC(=O)C(C)C1=Nc2nnc(CCCCCCCc3nnc4n3C(=O)C(C(C)C(=O)CCCCC)=N4)n2C1=O (stereo not drawn) |  | > 100 |  |  |  | > 100 |  | > 100 |  |  |  |  | > 100 | 
4 | CCOC(=O)C1N(S(=O)(=O)c2ccc(C)cc2)CCC12c1ccccc1N(C(C)=O)C2c1ccc(OC)c(OC)c1 (stereo not drawn) |  | > 100 |  |  |  | > 100 |  | > 100 |  |  |  |  | > 100 | 
5 | COc1ccc(OC)c(/C(C)=N/NC(N)=S)c1 |  | > 100 |  | > 100 |  | > 100 |  | > 100 |  |  |  |  | > 100 | 
6 | COc1ccc(S(=O)(=O)Nc2ccccc2C(=O)O)cc1 |  | > 100 |  | > 100 |  | > 100 |  | > 100 |  |  |  |  | > 100 | 
7 | C=C(COC(C)=O)CC(OC(C)=O)c1ccccc1 (stereo not drawn) |  | > 100 |  | > 100 |  | > 100 |  | > 100 |  |  |  |  | > 100 | 
8 | CC1CCC2(CC1)NN=c1s/c(=C\c3ccc(O)cc3)c(=O)n1N2 (stereo not drawn) |  | > 100 |  |  |  |  |  | > 100 |  |  |  |  | > 100 | 
9 | CC(C)CC(NC(=O)c1cccc(O)c1O)C(=O)NCc1cc(CNC(=O)C(CC(C)C)NC(=O)c2cccc(O)c2O)cc(CNC(=O)C(CC(C)C)NC(=O)c2cccc(O)c2O)c1 (stereo not drawn) |  | 56.5 |  | 29 |  | 70.1 |  | 25.6 |  |  |  |  | 20.6 | 
10 | CCC[CH2][Sn]1([CH2]CCC)[O]CC(Cc2ccccc2)[O]1 (stereo not drawn) | 13.2 | 26 | 1.54 | 3.45 | 6.17 | 19 | 1.68 | 3.63 |  |  |  |  | 20.2 | 7.25
11 | O=C1c2ccccc2C(Br)(Br)c2ccccc21 |  | > 31.6 |  | > 31.6 |  | > 31.6 |  | > 31.6 |  |  |  |  | > 31.6 | 
12 | Cc1ccc(SC(CCC(Sc2ccc(C)cc2)Sc2ccc(C)cc2)Sc2ccc(C)cc2)cc1 |  | > 100 |  | > 100 |  | > 100 |  | > 100 |  |  |  |  |  | 
13 | C[N-]c1nnnn1C.[Au+].c1ccc([PH+](c2ccccc2)c2ccccc2)cc1 | 3.19 | 12.9 | 1.66 | 3.78 | 12.7 | 25.3 | 2.12 | 5.77 |  |  |  |  | 9.23 | 4.06
14 | CC(=O)[O][Ga]([Cl])[O]C(C)=O | > 100 | > 100 | > 100 | > 100 | > 100 | > 100 | > 100 | > 100 |  |  |  |  |  | 
15 | [Cl-].[O-]/N=C(\c1ccccc1)c1ccccn1.[O-]/N=C(\c1ccccc1)c1ccccn1.[O-]/N=C(\c1ccccc1)c1ccccn1.[Sm+3] | 43.3 | > 100 | 22 | 52.8 | 18.7 | 55.5 | 22.4 | 53.3 |  |  |  |  | > 100 | 25.7
16 | Cc1[nH]c2ccccc2c1C(=O)CC1(O)C(=O)Nc2ccccc21 (stereo not drawn) |  | > 100 |  | > 100 |  | > 100 |  | > 100 |  |  |  |  | > 100 | 
17 | Cc1cc2c(ccc3c(C)cc(=O)oc32)o1 |  | > 100 |  | > 100 |  | > 100 |  | > 100 |  |  |  |  | > 100 | 
18 | COC(=O)N(C(=O)OC)C(C(=O)O)C(C)C (stereo not drawn) |  | > 100 |  | > 100 |  | > 100 |  | > 100 |  |  |  |  | > 100 | 
19 | COc1ccc2c(CN3CCCCC3CO)cc3cc(OC)c(OC)cc3c2c1 (stereo not drawn) |  |  |  | 17.8 |  | 12.5 |  | 13.7 |  |  |  |  | 21 | 
20 | CN(C)CC(C)(C)C(=O)/C=C/c1ccc(/C=C/C(=O)C(C)(C)CN(C)C)cc1 |  | 2.29 |  |  |  | 3.49 |  | 1.69 |  |  |  |  | 3.04 | 
21 | c1cc(N(CCn2cccn2)CCn2cccn2)cc(N(CCn2cccn2)CCn2cccn2)c1 |  | > 100 |  | > 100 |  | > 100 |  | > 100 |  |  |  |  | > 100 | 
22 | O=C(CP(=O)(O)O)NC(CC(=O)OCc1ccccc1)C(=O)OCc1ccccc1 (stereo not drawn) |  | > 100 |  | > 100 |  | > 100 |  |  | > 100 | > 100 |  | > 100 | > 100 | 
23 | O=c1nc(/C=C/c2ccccc2Cl)cc2n1CCN2CCO |  | > 100 |  | > 100 |  | > 100 |  | > 100 |  |  |  |  |  | 
24 | CCCCCC[N+](C)(C)Cc1ccc(C[N+](C)(C)CCCCCC)cc1 |  | > 100 |  | 5.15 |  | 29.8 |  |  |  |  |  |  | 27.9 | 
